Where no end group is shown, it is not given here.
Tests used:
S. aureus 001N (MRSA) = format: cell-based, Staphylococcus aureus; settings: clinical strain, broth microdilution, 0.5 × 10^5 CFU/mL, 18 h, 37 °C, at least triplicate
Experimental: (§1) Microbiological assays were performed using reference and clinical strains of Staphylococcus aureus. Minimal inhibitory concentrations (MIC) were determined by broth microdilution method on 96-well polystyrene plates according to Clinical and Laboratory Standards Institute (CLSI) recommendations [Clinical and Laboratory Standards Institute (CLSI) [2012]]. For this purpose, the initial inoculums of 0.5 × 10^5 CFU/mL of bacteria were exposed to a range of concentrations of the peptides (0.5–256 µg/mL). All plates were incubated for 18 h at 37 °C. MIC was taken as the lowest concentration of the compound at which the growth of bacteria was not observed. Reference strains of S. aureus: ATCC 6538, ATCC 6538/P, ATCC 9144, ATCC 12598, and ATCC 25923 were obtained from the Polish Collection of Microorganisms (PCM, Polish Academy of Sciences, Wrocław), whereas 24 clinical strains were isolated from the patients of the Clinic of Dermatology, Venereology and Allergology (Medical University of Gdańsk). Nine strains were characterized as methicillin-resistant (MRSA). Preliminary identification and detection was conducted on the ChromID MRSA/ChromID S. aureus biplate (bioMérieux) for the simultaneous detection of S. aureus and methicillin-resistant S. aureus (MRSA). All experiments were conducted at least in triplicate.

S. aureus 001S (MRSA) = format: cell-based, Staphylococcus aureus; settings: clinical strain, broth microdilution, 0.5 × 10^5 CFU/mL, 18 h, 37 °C, at least triplicate
Experimental: as §1

S. aureus 002N = format: cell-based, Staphylococcus aureus; settings: clinical strain, broth microdilution, 0.5 × 10^5 CFU/mL, 18 h, 37 °C, at least triplicate
Experimental: as §1

S. aureus 002S = format: cell-based, Staphylococcus aureus; settings: clinical strain, broth microdilution, 0.5 × 10^5 CFU/mL, 18 h, 37 °C, at least triplicate
Experimental: as §1

S. aureus 004N (MRSA) = format: cell-based, Staphylococcus aureus; settings: clinical strain, broth microdilution, 0.5 × 10^5 CFU/mL, 18 h, 37 °C, at least triplicate
Experimental: as §1

S. aureus 005S = format: cell-based, Staphylococcus aureus; settings: clinical strain, broth microdilution, 0.5 × 10^5 CFU/mL, 18 h, 37 °C, at least triplicate
Experimental: as §1

S. aureus 013S = format: cell-based, Staphylococcus aureus; settings: clinical strain, broth microdilution, 0.5 × 10^5 CFU/mL, 18 h, 37 °C, at least triplicate
Experimental: as §1

S. aureus 015N (MRSA) = format: cell-based, Staphylococcus aureus; settings: clinical strain, broth microdilution, 0.5 × 10^5 CFU/mL, 18 h, 37 °C, at least triplicate
Experimental: as §1

S. aureus 017N (MRSA) = format: cell-based, Staphylococcus aureus; settings: clinical strain, broth microdilution, 0.5 × 10^5 CFU/mL, 18 h, 37 °C, at least triplicate
Experimental: as §1

S. aureus 017S (MRSA) = format: cell-based, Staphylococcus aureus; settings: clinical strain, broth microdilution, 0.5 × 10^5 CFU/mL, 18 h, 37 °C, at least triplicate
Experimental: as §1

S. aureus 024N (MRSA) = format: cell-based, Staphylococcus aureus; settings: clinical strain, broth microdilution, 0.5 × 10^5 CFU/mL, 18 h, 37 °C, at least triplicate
Experimental: as §1

S. aureus 030N = format: cell-based, Staphylococcus aureus; settings: clinical strain, broth microdilution, 0.5 × 10^5 CFU/mL, 18 h, 37 °C, at least triplicate
Experimental: as §1

S. aureus 033N = format: cell-based, Staphylococcus aureus; settings: clinical strain, broth microdilution, 0.5 × 10^5 CFU/mL, 18 h, 37 °C, at least triplicate
Experimental: as §1

S. aureus 039N = format: cell-based, Staphylococcus aureus; settings: clinical strain, broth microdilution, 0.5 × 10^5 CFU/mL, 18 h, 37 °C, at least triplicate
Experimental: as §1

S. aureus 043SC (MRSA) = format: cell-based, Staphylococcus aureus; settings: clinical strain, broth microdilution, 0.5 × 10^5 CFU/mL, 18 h, 37 °C, at least triplicate
Experimental: as §1

S. aureus 045N = format: cell-based, Staphylococcus aureus; settings: clinical strain, broth microdilution, 0.5 × 10^5 CFU/mL, 18 h, 37 °C, at least triplicate
Experimental: as §1

S. aureus 048S = format: cell-based, Staphylococcus aureus; settings: clinical strain, broth microdilution, 0.5 × 10^5 CFU/mL, 18 h, 37 °C, at least triplicate
Experimental: as §1

S. aureus 051N (MRSA) = format: cell-based, Staphylococcus aureus; settings: clinical strain, broth microdilution, 0.5 × 10^5 CFU/mL, 18 h, 37 °C, at least triplicate
Experimental: as §1

S. aureus 051S = format: cell-based, Staphylococcus aureus; settings: clinical strain, broth microdilution, 0.5 × 10^5 CFU/mL, 18 h, 37 °C, at least triplicate
Experimental: as §1

S. aureus 053N = format: cell-based, Staphylococcus aureus; settings: clinical strain, broth microdilution, 0.5 × 10^5 CFU/mL, 18 h, 37 °C, at least triplicate
Experimental: as §1

S. aureus 060S = format: cell-based, Staphylococcus aureus; settings: clinical strain, broth microdilution, 0.5 × 10^5 CFU/mL, 18 h, 37 °C, at least triplicate
Experimental: as §1

S. aureus ATCC 12598 = format: cell-based, Staphylococcus aureus; settings: ATCC 12598, reference strain; broth microdilution, 0.5 × 10^5 CFU/mL, 18 h, 37 °C, at least triplicate
Experimental: as §1

S. aureus ATCC 25923 = format: cell-based, Staphylococcus aureus; settings: ATCC 25923, reference strain; broth microdilution, 0.5 × 10^5 CFU/mL, 18 h, 37 °C, at least triplicate
Experimental: as §1

S. aureus ATCC 6538/P = format: cell-based, Staphylococcus aureus; settings: reference strain, broth microdilution, 0.5 × 10^5 CFU/mL, 18 h, 37 °C, at least triplicate
Experimental: as §1

S. aureus ATCC 6538 = format: cell-based, Staphylococcus aureus; settings: ATCC 6538, reference strain; broth microdilution, 0.5 × 10^5 CFU/mL, 18 h, 37 °C, at least triplicate
Experimental: as §1

S. aureus ATCC 9144 = format: cell-based, Staphylococcus aureus; settings: ATCC 9144, reference strain; broth microdilution, 0.5 × 10^5 CFU/mL, 18 h, 37 °C, at least triplicate
Experimental: as §1

S. aureus K19N = format: cell-based, Staphylococcus aureus; settings: clinical strain, broth microdilution, 0.5 × 10^5 CFU/mL, 18 h, 37 °C, at least triplicate
Experimental: as §1

S. aureus K46N = format: cell-based, Staphylococcus aureus; settings: clinical strain, broth microdilution, 0.5 × 10^5 CFU/mL, 18 h, 37 °C, at least triplicate
Experimental: as §1

S. aureus K50S = format: cell-based, Staphylococcus aureus; settings: clinical strain, broth microdilution, 0.5 × 10^5 CFU/mL, 18 h, 37 °C, at least triplicate
Experimental: as §1

[1] = tested on: S. aureus (29): reference (5) and clinical (24) strains; settings: for Mean value of MIC: mean over 29 S. aureus strains (Table 5); for Mean MIC values: mean over 29 S. aureus strains, as repeated in Table 6
Experimental: as §1, with “For this purpose, the initial inoculums of 0.5 × 10^5 CFU/mL of bacteria were exposed to a range of concentrations of the peptides (0.5–256 µg/mL).” left out, “MIC was taken as the lowest concentration of the compound at which the growth of bacteria was not observed.” left out
To asses an overall activity of peptides, the mean MIC values were calculated.

Substance | MIC (S. aureus 001N (MRSA)) [µg/mL] | MIC (S. aureus 001S (MRSA)) [µg/mL] | MIC (S. aureus 002N) | MIC (S. aureus 002S) [µg/mL] | MIC (S. aureus 004N (MRSA)) [µg/mL] | MIC (S. aureus 005S) | MIC (S. aureus 013S) | MIC (S. aureus 015N (MRSA)) [µg/mL] | MIC (S. aureus 017N (MRSA)) [µg/mL] | MIC (S. aureus 017S (MRSA)) [µg/mL] | MIC (S. aureus 024N (MRSA)) | MIC (S. aureus 030N) [µg/mL] | MIC (S. aureus 033N) [µg/mL] | MIC (S. aureus 039N) [µg/mL] | MIC (S. aureus 043SC (MRSA)) [µg/mL] | MIC (S. aureus 045N) [µg/mL] | MIC (S. aureus 048S) [µg/mL] | MIC (S. aureus 051N (MRSA)) [µg/mL] | MIC (S. aureus 051S) [µg/mL] | MIC (S. aureus 053N) [µg/mL] | further results
GLFDVIKKVASVIGGL-NH2 [Citropin 1.1 TFA^−] | 16 | 16 | 16 µg/mL | 16 | 16 | 2 µg/mL | 2 µg/mL | 16 | 8 | 4 | 2 µg/mL | 16 | 16 | 16 | 8 | 16 | 16 | 8 | 4 | 16 | MIC (S. aureus 060S): 2 µg/mL; MIC (S. aureus ATCC 12598): 16 µg/mL; MIC (S. aureus ATCC 25923): 32 µg/mL; MIC (S. aureus ATCC 6538/P): 16 µg/mL; MIC (S. aureus ATCC 6538): 16 µg/mL; MIC (S. aureus ATCC 9144): 32 µg/mL; MIC (S. aureus K19N): 16 µg/mL; MIC (S. aureus K46N): 16 µg/mL; MIC (S. aureus K50S): 2 µg/mL; Mean value of MIC [1]: 13.0 µg/mL; Mean MIC values [1]: 13.0 µg/mL
KWKLFKKIGAVLKVL-NH2 [CAMEL AcO^−] | 2 | 4 | 4 µg/mL | 4 | 4 | ≤ (≤ alone stands for MIC ≤ 0.25 µg/mL) | ≤ (≤ alone stands for MIC ≤ 0.25 µg/mL) | 4 | 2 | 2 | ≤ (≤ alone stands for MIC ≤ 0.25 µg/mL) | 4 | 4 | 4 | 4 | 4 | 4 | 2 | 2 | 4 | MIC (S. aureus 060S): 1 µg/mL; MIC (S. aureus ATCC 12598): 2 µg/mL; MIC (S. aureus ATCC 25923): 8 µg/mL; MIC (S. aureus ATCC 6538/P): 1 µg/mL; MIC (S. aureus ATCC 6538): ≤ (≤ alone stands for MIC ≤ 0.25 µg/mL); MIC (S. aureus ATCC 9144): 2 µg/mL; MIC (S. aureus K19N): 2 µg/mL; MIC (S. aureus K46N): 4 µg/mL; MIC (S. aureus K50S): 1 µg/mL; Mean value of MIC [1]: ≤ 2.8 µg/mL; Mean MIC values [1]: ≤ 2.8 µg/mL
KWKLFKKIGAVLKVL-NH2 [CAMEL Cl^−] | 2 | 2 | ≤ (≤ alone stands for MIC ≤ 0.25 µg/mL) | 1 | 2 | ≤ (≤ alone stands for MIC ≤ 0.25 µg/mL) | ≤ (≤ alone stands for MIC ≤ 0.25 µg/mL) | 2 | 2 | 2 | ≤ (≤ alone stands for MIC ≤ 0.25 µg/mL) | 4 | 4 | 4 | 4 | 4 | 4 | 2 | 2 | 4 | MIC (S. aureus 060S): 1 µg/mL; MIC (S. aureus ATCC 12598): 1 µg/mL; MIC (S. aureus ATCC 25923): 2 µg/mL; MIC (S. aureus ATCC 6538/P): 1 µg/mL; MIC (S. aureus ATCC 6538): ≤ (≤ alone stands for MIC ≤ 0.25 µg/mL); MIC (S. aureus ATCC 9144): 1 µg/mL; MIC (S. aureus K19N): 1 µg/mL; MIC (S. aureus K46N): 4 µg/mL; MIC (S. aureus K50S): 1 µg/mL; Mean value of MIC [1]: ≤ 2.0 µg/mL; Mean MIC values [1]: ≤ 2.0 µg/mL

From PMC5917001, “Counter-ion effect on antistaphylococcal activity and cytotoxicity of selected antimicrobial peptides” (Amino Acids, 2018)
